Data taken from BigSolDB 2.1.

CCC[C@H](N)C(=O)O
solubility (mole fraction)
Settings	298.15 K	303.15 K	308.15 K	313.15 K	318.15 K	323.15 K
in acetone	0.000515	0.000664	0.000828	0.00106	0.00135	0.00161
in acetonitrile	5.93e-05	6.88e-05	7.54e-05	8.02e-05	8.53e-05	9.69e-05
in ethanol	0.000171	0.000186	0.000201	0.000227	0.000244	0.000283
in ethyl acetate	0.000253	0.000301	0.000349	0.000449	0.0005	0.00056
in isopentanol	0.000726	0.000875	0.00103	0.00122	0.00151	0.00183
in isopropanol	0.00119	0.0015	0.00173	0.00192	0.00215	0.00249
in methanol	0.00104	0.00109	0.00113	0.0012	0.00126	0.00129
in methyl acetate	7.37e-05	9.03e-05	0.00012	0.00015	0.000176	0.000216
in n-butanol	0.000962	0.00122	0.0014	0.00157	0.00175	0.0019
in n-pentanol	0.000508	0.000567	0.000639	0.000744	0.000818	0.000872
in n-propanol	0.000859	0.00115	0.0015	0.00189	0.00231	0.00278
in water	0.0135	0.0136	0.0137	0.0138	0.0139	0.0141
